From patent US12358885B2, “Substituted n-propylamine fused heterocyclic mescaline derivatives” (Enveric Biosciences Canada Inc., priority 2022, dated 2025)
Like-named read-outs stand apart in the source and are kept apart here.

How the values were obtained:
[1] = biological target: T1, 5-HT1A receptor (Homo sapiens, UniProt P08908); assay: 5-HT1A receptor radioligand competition assay (SPA, 8-hydroxy-DPAT [3H]); assay type: binding; settings: 0.5 nM hot 8-hydroxy-DPAT, membranes containing 5-HT1A
T1 construct: purchased Perkin Elmer 6110501400UA
T1 sequence (P08908 1-422): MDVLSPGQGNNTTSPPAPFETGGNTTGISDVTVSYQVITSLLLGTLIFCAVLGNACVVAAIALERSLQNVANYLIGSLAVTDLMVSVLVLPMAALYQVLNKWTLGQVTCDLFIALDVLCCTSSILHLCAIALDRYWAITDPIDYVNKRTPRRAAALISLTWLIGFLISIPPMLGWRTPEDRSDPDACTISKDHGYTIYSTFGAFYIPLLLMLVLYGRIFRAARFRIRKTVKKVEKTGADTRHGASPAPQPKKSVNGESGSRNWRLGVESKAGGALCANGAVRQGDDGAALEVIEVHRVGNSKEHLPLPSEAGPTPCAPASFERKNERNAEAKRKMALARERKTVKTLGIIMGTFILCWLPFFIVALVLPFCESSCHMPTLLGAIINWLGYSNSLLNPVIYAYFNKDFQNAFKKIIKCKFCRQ

[2] = biological target: T2, norepinephrine transporter (NET) (Homo sapiens, UniProt P23975); assay: Eurofins Cerep competition binding assay at norepinephrine transporter; settings: for NET, percent of control-specific binding: 10 μM test ligand, [3H]nisoxetine, recombinant transporter in CHO cells; for inhibition at 10 µM: read-out: NET, percent of control-specific binding
T2 construct: host or cells: CHO cells (membrane preparation)
T2 sequence (P23975 whole entry): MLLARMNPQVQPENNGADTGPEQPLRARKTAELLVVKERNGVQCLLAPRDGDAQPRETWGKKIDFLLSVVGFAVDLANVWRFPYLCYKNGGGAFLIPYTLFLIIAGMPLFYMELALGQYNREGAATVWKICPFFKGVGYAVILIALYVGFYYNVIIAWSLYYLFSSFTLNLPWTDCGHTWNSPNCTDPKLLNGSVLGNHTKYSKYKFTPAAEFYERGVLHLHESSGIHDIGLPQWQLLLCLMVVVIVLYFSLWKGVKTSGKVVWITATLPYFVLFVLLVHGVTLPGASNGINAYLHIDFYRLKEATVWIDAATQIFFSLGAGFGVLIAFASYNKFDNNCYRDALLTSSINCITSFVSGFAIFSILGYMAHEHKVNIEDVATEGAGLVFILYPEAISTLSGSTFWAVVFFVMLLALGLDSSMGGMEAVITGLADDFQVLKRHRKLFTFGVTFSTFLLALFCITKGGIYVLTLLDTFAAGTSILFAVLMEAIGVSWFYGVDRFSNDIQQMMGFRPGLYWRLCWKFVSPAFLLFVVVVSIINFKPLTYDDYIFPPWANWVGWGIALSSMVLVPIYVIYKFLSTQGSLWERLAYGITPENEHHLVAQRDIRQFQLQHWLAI

[3] = biological target: T3, 5-HT7 receptor (Homo sapiens, UniProt P34969); assay: Eurofins Cerep competition binding assay at 5-HT7 receptor; settings: 10 μM test ligand, [3H]LSD, recombinant receptor in HEK-293 cells; for inhibition at 10 µM: read-out: HT7, percent of control-specific binding
T3 construct: host or cells: HEK-293 cells (membrane preparation)
T3 sequence (P34969 whole entry): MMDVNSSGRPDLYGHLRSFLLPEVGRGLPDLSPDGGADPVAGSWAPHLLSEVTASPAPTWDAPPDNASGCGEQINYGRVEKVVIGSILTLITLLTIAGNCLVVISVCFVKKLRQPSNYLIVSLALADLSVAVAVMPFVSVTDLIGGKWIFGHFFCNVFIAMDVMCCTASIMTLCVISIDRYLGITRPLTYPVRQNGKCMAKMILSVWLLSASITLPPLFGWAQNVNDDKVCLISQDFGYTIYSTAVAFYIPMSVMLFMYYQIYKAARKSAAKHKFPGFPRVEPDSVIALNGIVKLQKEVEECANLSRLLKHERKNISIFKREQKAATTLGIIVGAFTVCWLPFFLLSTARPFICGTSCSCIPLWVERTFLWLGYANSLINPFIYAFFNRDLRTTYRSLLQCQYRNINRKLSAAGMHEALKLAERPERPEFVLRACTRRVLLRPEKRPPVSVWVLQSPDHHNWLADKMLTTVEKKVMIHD

[4] = biological target: T1, 5-HT1A receptor; assay: Eurofins Cerep competition binding assay at 5-HT1A receptor; settings: 10 μM test ligand, [3H]8-OH-DPAT, recombinant receptor in HEK-293 cells; for inhibition at 10 µM: read-out: HT1A, percent of control-specific binding
[5] = biological target: T4, 5-HT2B receptor (Homo sapiens, UniProt P41595); assay: Eurofins Cerep competition binding assay at 5-HT2B receptor; settings: 10 μM test ligand, [3H]mesulergine, recombinant receptor in CHO cells; for inhibition at 10 µM: read-out: HT2B, percent of control-specific binding
T4 construct: host or cells: CHO cells (membrane preparation)
T4 sequence (P41595 whole entry): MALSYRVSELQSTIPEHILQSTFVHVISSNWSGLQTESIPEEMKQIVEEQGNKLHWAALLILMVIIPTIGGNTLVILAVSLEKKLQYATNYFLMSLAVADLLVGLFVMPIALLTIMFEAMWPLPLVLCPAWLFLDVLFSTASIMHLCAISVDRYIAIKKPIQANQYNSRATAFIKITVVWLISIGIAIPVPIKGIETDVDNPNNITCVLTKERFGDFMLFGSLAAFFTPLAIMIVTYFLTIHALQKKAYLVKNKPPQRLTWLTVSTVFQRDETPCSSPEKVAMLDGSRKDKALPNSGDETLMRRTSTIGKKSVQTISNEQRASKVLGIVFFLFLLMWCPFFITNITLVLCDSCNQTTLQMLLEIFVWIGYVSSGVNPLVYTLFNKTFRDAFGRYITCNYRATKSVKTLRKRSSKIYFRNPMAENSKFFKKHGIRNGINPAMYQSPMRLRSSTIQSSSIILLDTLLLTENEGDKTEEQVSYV

[6] = biological target: T5, 5-HT2A receptor (Homo sapiens, UniProt P28223); assay: biochemical; assay type: binding; settings: for inhibition at 10 µM: read-out: HT2A, percent of control-specific binding
T5 construct: host or cells: HEK-293 cells (membrane preparation)
T5 sequence (P28223 whole entry): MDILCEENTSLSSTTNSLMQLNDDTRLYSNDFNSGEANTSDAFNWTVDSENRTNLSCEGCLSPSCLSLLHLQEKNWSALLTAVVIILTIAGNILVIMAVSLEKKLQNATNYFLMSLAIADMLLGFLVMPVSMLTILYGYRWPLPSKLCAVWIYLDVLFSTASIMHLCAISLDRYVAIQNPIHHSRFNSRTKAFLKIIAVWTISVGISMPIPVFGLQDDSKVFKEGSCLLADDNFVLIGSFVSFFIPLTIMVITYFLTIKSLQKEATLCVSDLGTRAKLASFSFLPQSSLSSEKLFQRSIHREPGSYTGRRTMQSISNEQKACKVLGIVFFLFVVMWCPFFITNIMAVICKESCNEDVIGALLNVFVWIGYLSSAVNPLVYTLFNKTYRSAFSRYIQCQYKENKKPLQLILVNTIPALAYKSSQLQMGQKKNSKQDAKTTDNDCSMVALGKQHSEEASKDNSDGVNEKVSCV

[7] = biological target: T6, MT1 receptor (Homo sapiens, UniProt P48039); assay: Eurofins Cerep competition binding assay at MT1 receptor; settings: for MT1, percent of control-specific binding: 10 μM test ligand, [125I]2-iodomelatonin, recombinant receptor in CHO cells; for inhibition at 10 µM: read-out: MT1, percent of control-specific binding
T6 construct: host or cells: CHO cells (membrane preparation)
T6 sequence (P48039 whole entry): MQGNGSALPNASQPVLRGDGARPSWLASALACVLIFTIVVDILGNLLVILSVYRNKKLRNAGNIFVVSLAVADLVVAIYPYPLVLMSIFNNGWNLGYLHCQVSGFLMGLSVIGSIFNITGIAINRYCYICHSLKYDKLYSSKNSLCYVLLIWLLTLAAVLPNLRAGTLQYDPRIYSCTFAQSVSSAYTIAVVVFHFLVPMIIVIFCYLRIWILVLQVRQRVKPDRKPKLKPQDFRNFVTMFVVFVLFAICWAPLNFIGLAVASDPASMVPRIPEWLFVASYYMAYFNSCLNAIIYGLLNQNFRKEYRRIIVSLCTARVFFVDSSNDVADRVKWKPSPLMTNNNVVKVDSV

[8] = biological target: T5, 5-HT2A receptor; assay: biochemical; assay type: binding; settings: 1 nM [3H]ketanserin; membranes containing 5-HT2A; SPA
[9] = biological target: T7, serotonin transporter (SERT) (Homo sapiens, UniProt P31645); assay: biochemical; assay type: binding; settings: for SERT, percent of control-specific binding: 10 µM; for inhibition at 10 µM: read-out: SERT, percent of control-specific binding
T7 construct: host or cells: CHO cells (membrane preparation)
T7 sequence (P31645 whole entry): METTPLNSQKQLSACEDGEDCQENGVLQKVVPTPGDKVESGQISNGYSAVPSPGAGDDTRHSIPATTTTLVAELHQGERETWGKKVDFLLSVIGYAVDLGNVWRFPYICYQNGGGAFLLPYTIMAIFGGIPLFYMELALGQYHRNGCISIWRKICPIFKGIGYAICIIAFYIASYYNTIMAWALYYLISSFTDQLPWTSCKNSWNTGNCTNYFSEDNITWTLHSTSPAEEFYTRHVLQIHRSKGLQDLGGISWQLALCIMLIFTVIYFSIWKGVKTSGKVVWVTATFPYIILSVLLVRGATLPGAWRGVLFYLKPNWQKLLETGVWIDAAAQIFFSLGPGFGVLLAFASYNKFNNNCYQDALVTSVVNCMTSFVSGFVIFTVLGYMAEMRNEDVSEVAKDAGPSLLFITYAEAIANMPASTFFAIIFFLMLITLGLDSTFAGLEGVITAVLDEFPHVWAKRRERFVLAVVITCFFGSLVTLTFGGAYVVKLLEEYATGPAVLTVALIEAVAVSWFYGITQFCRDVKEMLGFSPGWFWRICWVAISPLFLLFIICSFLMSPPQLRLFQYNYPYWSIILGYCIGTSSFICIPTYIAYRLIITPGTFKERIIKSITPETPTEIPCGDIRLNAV

[10] = biological target: T8, D3 receptor (Homo sapiens, UniProt P35462); assay: Eurofins Cerep competition binding assay at D3 receptor; settings: 10 μM test ligand, [3H]methylspiperone, recombinant receptor in CHO cells; for inhibition at 10 µM: read-out: D3, percent of control-specific binding
T8 construct: host or cells: CHO cells (membrane preparation)
T8 sequence (P35462 whole entry): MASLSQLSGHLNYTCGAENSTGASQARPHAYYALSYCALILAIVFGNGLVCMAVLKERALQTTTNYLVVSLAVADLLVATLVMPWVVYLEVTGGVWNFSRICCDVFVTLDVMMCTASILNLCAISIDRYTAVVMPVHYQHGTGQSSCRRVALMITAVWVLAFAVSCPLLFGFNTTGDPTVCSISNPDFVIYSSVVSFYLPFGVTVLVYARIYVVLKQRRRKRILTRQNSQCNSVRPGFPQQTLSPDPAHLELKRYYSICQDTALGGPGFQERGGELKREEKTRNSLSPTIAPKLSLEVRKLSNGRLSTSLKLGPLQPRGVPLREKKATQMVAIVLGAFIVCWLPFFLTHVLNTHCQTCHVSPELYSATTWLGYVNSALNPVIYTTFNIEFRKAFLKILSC

[11] = biological target: T9, alpha2A receptor (Homo sapiens, UniProt P08913); assay: Eurofins Cerep competition binding assay at alpha2A receptor; settings: 10 μM test ligand; [3H]RX 821002; recombinant receptor in CHO cells
T9 construct: host or cells: CHO cells (membrane preparation)
T9 sequence (P08913 1-465): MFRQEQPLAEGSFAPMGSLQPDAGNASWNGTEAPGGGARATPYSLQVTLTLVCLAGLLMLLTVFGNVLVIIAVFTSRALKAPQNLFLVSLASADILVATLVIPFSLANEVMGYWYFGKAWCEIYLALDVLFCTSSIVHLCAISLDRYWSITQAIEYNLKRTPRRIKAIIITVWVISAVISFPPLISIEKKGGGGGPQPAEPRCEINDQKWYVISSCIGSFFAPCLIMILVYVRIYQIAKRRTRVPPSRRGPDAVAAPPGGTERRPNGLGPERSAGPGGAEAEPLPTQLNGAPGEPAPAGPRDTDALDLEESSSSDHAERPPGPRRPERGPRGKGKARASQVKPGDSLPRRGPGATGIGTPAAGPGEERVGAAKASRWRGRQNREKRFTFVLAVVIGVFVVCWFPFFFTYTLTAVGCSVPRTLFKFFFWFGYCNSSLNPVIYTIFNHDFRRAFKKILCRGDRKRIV

[12] = biological target: T10, dopamine transporter (DAT) (Homo sapiens, UniProt Q01959); assay: Eurofins Cerep competition binding assay at dopamine transporter; settings: for DAT, percent of control-specific binding: 10 μM test ligand, [3H]BTCP, recombinant transporter in CHO cells; for inhibition at 10 µM: read-out: DAT, percent of control-specific binding
T10 construct: host or cells: CHO cells (membrane preparation)
T10 sequence (Q01959 whole entry): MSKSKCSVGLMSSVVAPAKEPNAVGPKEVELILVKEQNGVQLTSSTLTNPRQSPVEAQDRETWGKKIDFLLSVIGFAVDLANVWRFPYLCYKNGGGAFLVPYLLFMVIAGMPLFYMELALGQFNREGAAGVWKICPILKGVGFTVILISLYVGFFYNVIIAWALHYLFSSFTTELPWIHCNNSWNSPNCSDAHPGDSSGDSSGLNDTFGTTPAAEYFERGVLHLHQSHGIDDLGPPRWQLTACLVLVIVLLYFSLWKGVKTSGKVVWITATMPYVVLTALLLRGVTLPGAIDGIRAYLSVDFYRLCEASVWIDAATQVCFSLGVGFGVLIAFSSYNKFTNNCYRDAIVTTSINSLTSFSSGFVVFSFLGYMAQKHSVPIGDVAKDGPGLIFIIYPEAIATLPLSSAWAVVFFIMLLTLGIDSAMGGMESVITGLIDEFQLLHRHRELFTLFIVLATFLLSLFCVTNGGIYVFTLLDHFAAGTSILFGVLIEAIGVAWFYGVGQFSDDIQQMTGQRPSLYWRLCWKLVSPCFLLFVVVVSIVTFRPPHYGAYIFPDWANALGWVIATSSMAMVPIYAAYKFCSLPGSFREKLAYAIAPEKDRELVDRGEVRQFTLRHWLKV

[13] = biological target: T1, 5-HT1A receptor; assay: Functional 5-HT1A receptor cAMP assay in CHO-K1/5-HT1A/Gα15 cells; assay type: cell-based
[14] = biological target: T11, 5-HT2C receptor (Homo sapiens, UniProt P28335); assay: Eurofins Cerep competition binding assay at 5-HT2C receptor; settings: 10 μM test ligand; [125I](±)DOI; recombinant receptor in HEK-293 cells; read-out: HT2C, percent of control-specific binding
T11 construct: host or cells: HEK-293 cells (membrane preparation)
T11 sequence (P28335 33-458): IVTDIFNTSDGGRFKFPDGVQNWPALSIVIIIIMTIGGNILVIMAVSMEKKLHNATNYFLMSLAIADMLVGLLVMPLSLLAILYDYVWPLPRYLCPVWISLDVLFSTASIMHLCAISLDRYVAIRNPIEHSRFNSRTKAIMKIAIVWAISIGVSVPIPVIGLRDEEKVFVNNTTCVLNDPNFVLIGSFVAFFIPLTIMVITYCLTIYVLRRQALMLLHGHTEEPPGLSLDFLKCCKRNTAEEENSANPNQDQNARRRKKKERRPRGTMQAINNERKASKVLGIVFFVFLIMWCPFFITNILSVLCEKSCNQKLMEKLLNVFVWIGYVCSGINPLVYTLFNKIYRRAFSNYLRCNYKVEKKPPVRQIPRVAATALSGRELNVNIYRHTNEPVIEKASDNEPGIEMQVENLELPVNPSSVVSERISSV

[15] = 10 μM test molecule, [125I](±)DOI, recombinant receptor in HEK-293 cells

CC(Cc1ccc2c(c1)OCO2)CN1CCCC1 (racemic) [A(II)]
Ki [1]: 8 µM

COc1cc(CCN)c(OC)cc1Br [2C-B, reference compound]
NET, percent of control-specific binding [2]: 13% | HT7, percent of control-specific binding [3]: 88% | HT1A, percent of control-specific binding [4]: 96% | HT2B, percent of control-specific binding [5]: 99% | HT2A, percent of control-specific binding [6, 15]: 98% | MT1, percent of control-specific binding [7]: 86% | Ki [8]: 0.414 µM | SERT, percent of control-specific binding [9]: 42% | D3, percent of control-specific binding [10]: 43% | α-2A, percent of control-specific binding [11]: 88% | DAT, percent of control-specific binding [12]: 5% | Ki [1]: 0.2 µM | EC50 ([13]; reduction of cAMP in cells stimulated with 4 μM forskolin, CHO-K1/5-HT1A/Gα15, read-out: 5-HT1A, EC50): 5.95 µM

COc1ccc2cccc(CCNC(C)=O)c2c1 [Agomelatine]
inhibition at 10 µM [6, 15]: 61% | inhibition at 10 µM [10]: 6% | α-2A, percent of control-specific binding [11]: 2%

CC(NC(C)(C)C)C(=O)c1cccc(Cl)c1 (stereo not shown) [Bupropion]
inhibition at 10 µM [10]: 3% | α-2A, percent of control-specific binding [11]: 2%

CCN(CC)CCCc1ccc2c(c1)OCO2 [C(I)]
Ki [1]: 2.9 µM

c1cc2c(cc1CCCN1CCCC1)OCO2 [C(III)]
inhibition at 10 µM [2]: 3% | inhibition at 10 µM [3]: 15% | inhibition at 10 µM [4]: 72% | inhibition at 10 µM [5]: 47% | inhibition at 10 µM [6, 15]: 37% | inhibition at 10 µM [7]: 3% | inhibition at 10 µM [9]: 19% | inhibition at 10 µM [10]: 22% | α-2A, percent of control-specific binding [11]: 36% | inhibition at 10 µM [12]: 27% | Ki [1]: 2.33 µM | inhibition at 10 µM [14]: 33%

Brc1cc2c(cc1CCCN1CCCC1)OCO2 [C(IV)]
inhibition at 10 µM [2]: 0% | inhibition at 10 µM [3]: 40% | inhibition at 10 µM [4]: 92% | inhibition at 10 µM [5]: 73% | inhibition at 10 µM [6, 15]: 62% | inhibition at 10 µM [7]: 8% | inhibition at 10 µM [9]: 31% | inhibition at 10 µM [10]: 61% | α-2A, percent of control-specific binding [11]: 55% | inhibition at 10 µM [12]: 10% | Ki [1]: 0.596 µM | inhibition at 10 µM [14]: 65%

COc1cc2c(cc1CCCN1CCCC1)OCO2 [C(V)]
Ki [1]: 5 µM | EC50 [13]: 116 µM

OCCNCCCc1cc2c(cc1Br)OCO2 [C(XIII)]
EC50 [13]: 22.9 µM

COc1cc(CC(C)N)c(OC)cc1Br (stereo not shown) [DOB, reference compound]
NET, percent of control-specific binding [2]: 6% | HT7, percent of control-specific binding [3]: 65% | HT1A, percent of control-specific binding [4]: 75% | HT2B, percent of control-specific binding [5]: 97% | HT2A, percent of control-specific binding [6, 15]: 100% | MT1, percent of control-specific binding [7]: −3% | SERT, percent of control-specific binding [9]: 53% | D3, percent of control-specific binding [10]: 25% | α-2A, percent of control-specific binding [11]: 66% | DAT, percent of control-specific binding [12]: 3%

CNCC[C@H](Oc1cccc2ccccc12)c1cccs1 [Duloxetine]
inhibition at 10 µM [6]: 95% | inhibition at 10 µM [10]: 66% | α-2A, percent of control-specific binding [11]: 54%

O=C(CCc1ccc2c(c1)OCO2)N1CCCC1 [F(III)]
inhibition at 10 µM [2]: 0% | inhibition at 10 µM [3]: 2% | inhibition at 10 µM [4]: 0% | inhibition at 10 µM [5]: 13% | inhibition at 10 µM [6, 15]: 0% | inhibition at 10 µM [7]: 12% | Ki [8]: 152 µM | inhibition at 10 µM [9]: 0% | inhibition at 10 µM [10]: 0% | α-2A, percent of control-specific binding [11]: 5% | inhibition at 10 µM [12]: 0% | Ki [1]: > 1000 µM | inhibition at 10 µM [14]: 5%
